The target of one assay is T1, hROMK (hKir1.1) (Homo sapiens, UniProt P48048).
T1 construct: expressed in transfected cells
T1 sequence (P48048 1-391): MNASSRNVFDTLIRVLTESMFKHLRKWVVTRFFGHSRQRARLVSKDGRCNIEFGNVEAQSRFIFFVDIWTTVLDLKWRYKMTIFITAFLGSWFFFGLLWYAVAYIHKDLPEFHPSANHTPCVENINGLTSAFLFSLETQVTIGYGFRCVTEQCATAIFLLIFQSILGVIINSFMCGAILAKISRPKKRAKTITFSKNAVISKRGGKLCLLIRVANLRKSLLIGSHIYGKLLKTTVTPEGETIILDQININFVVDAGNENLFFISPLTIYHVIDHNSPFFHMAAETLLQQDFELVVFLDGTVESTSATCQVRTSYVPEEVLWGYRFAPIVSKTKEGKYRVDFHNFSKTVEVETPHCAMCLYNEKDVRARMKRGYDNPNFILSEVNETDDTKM
Kind of assay: Thallium Flux Assay. It counts as cell-based. The method in brief:
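HEK293 cells stably expressing hROMK, loaded with FluxOR dye 90 min at ambient temperature, then compound 30 min with 0.3 mM ouabain in probenecid buffer pH 7.4.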

In the next assay the target is T2, Kir1.1 (ROMK1) (Homo sapiens, UniProt P48048).
T2 sequence (P48048 1-391): T1 sequence (P48048 1-391)
Briefly: Electrophysiology Assay (whole cell voltage clamp, IonWorks Quattro).

The mark [1] stands for this setting: HEK293 cells stably expressing hROMK (hKir1.1), FLIPR-Tetra, read-out: Thallium Flux IC50.

Like-named read-outs stand apart in the source and are kept apart here.

Experimental for Kir1.1 (ROMK1): Chinese hamster ovary cells stably expressing Kir1.1 channels were maintained in T-75 flasks in cell culture media in a humidified 10% CO2 incubator at 37 °C. Prior to an experiment, Kir1.1 expression was induced by overnight incubation with 1 mM sodium butyrate. […] After centrifugation, the cell pellet was resuspended in approximately 4.0 mL of bath solution and placed in the IonWorks instrument. The intracellular solution consisted of (in mM): 80 K gluconate, 40 KCl, 20 KF, 3.2 MgCl2, 3 EGTA, 5 Hepes, pH 7.4. Electrical access to the cytoplasm was achieved by perforation in 0.13 mg/mL amphotericin B for 4 min. […] Voltage protocols and current recordings were performed using the IonWorks HT software/hardware system. Currents were sampled at 1 kHz. No correction for liquid junction potentials was used. The test pulse, consisting of a 100 ms step to 0 mV from a holding potential of -70 mV, followed by a 100 ms voltage ramp from -70 mV to +70 mV, was applied before and after a 6 min compound incubation period. Test compounds were prepared by diluting DMSO stock solutions into the bath solution at 3x the final concentration and placed in the instrument in 96-well polypropylene plates. Current amplitudes were measured using the IonWorks software.

On to `COc1c([C@H]2CN3CCN(C(=O)Cc4ccc(-n5cnnn5)nc4)C[C@H]3CO2)ccc(F)c1C#N` [Example 61, 6-fluoro-2-methoxy-3-[(3S,9aS)-8-{[6-(1H-tetrazol-1-vl)pvridin-3-yl]acetyl}octahydropyrazino[2,1-c][1,4]oxazin-3-yl]benzonitrile], for which the figures for the IC50 at hROMK (hKir1.1) (setting [1]) and against Kir1.1 (ROMK1) were 130 nM and 70 nM, respectively.
As to `Cc1c([C@H]2CN3CCN(C(=O)Cc4cnc(-n5cnnn5)nc4)C[C@H]3CO2)ccc(F)c1C#N` [Example 6, 6-fluoro-2-methyl-3[(3S,9aS)-8-{[2-(1H-tetrazol-1-yl)pyrimidin-5-yl]acetyl}octahydropyrazino[2,1-c][1,4]oxazin-3-yl]benzonitrile], the IC50 at hROMK (hKir1.1) (Thallium Flux IC50) came out at 100 nM; against Kir1.1 (ROMK1), 40 nM.
In the case of `Cc1c([C@H]2CN3CCN(C(=O)Cc4ccc(-n5cnnn5)nc4)C[C@H]3CO2)ccc(F)c1C#N` [Example 4, 6-fluoro-2-methyl-3-[(3S,9aS)-8-{[6-(1H-tetrazol-1-yl)pyridin-3-yl]acetyl}octahydropyrazino[2,1-c][1,4]oxazin-3-yl]benzonitrile], the IC50 turned out to be 70 nM against hROMK (hKir1.1) (Thallium Flux IC50) and 40 nM on Kir1.1 (ROMK1).
In the same order, the values of `Cc1nc(-n2cnnn2)ncc1CC(=O)N1CCN2C[C@H](c3ccc(F)c(C#N)c3C)OC[C@@H]2C1` [Example 121, 6-fluoro-2-methyl-3-[(3S,9aS)-8-{[4-methyl-2-(1H-tetrazol-1-yl)pyrimidin-5-yl]acetyl}octahydropyrazino[2,1-c][1,4]oxazin-3-yl]benzonitrile] are 120 nM and 90 nM.
`N#Cc1cc([C@@H]2CN3CCN(C(=O)Cc4ccc(-n5cnnn5)nc4)C[C@H]3CO2)ccc1F` [Example 37, 2-fluoro-5-[(3R,9aS)-8-{[6-(1H-tetrazol-1-yl)pyridin-3-yl]acetyl}octahydropyrazino[2,1-c][1,4]oxazin-3-yl]benzonitrile] came in with an IC50 against Kir1.1 (ROMK1) of 20 nM.
With `N#Cc1cc([C@@H]2CN3CCN(C(=O)Cc4ccc(-n5cnnn5)cn4)C[C@H]3CO2)ccc1F` [Example 38, 2-fluoro-5-[(3R,9aS)-8-{[5-(1H-tetrazol-1-yl)pyridin-2-yl]acetyl}octahydropyrazino[2,1-c][1,4]oxazin-3-yl]benzonitrile], at Kir1.1 (ROMK1), the IC50 was determined as 120 nM.
At Kir1.1 (ROMK1), `Cc1c([C@@H]2CN3CCN(C(=O)Cc4ccc(-n5cnnn5)nc4)C[C@@H]3CO2)ccc(F)c1C#N` [Example 8, 6-fluoro-2-methyl-3-[(3R,9aR)-8-{[6-(1H-tetrazol-1-yl)pyridin-3-yl]acetyl}octahydropyrazino[2,1-c][1,4]oxazin-3-yl]benzonitrile] gave an IC50 of 40 nM.
In the case of `Cc1c([C@H]2CN3CCN(C(=O)Cc4ccc(-n5cnnn5)cn4)C[C@H]3CO2)ccc(F)c1C#N` [Example 3, 3-((3S,9aS)-8-(2-(5-(1H-tetrazol-1-yl)pyridin-2-yl)acetyl)octahydropyrazino[2,1-c][1,4]oxazin-3-yl)-6-fluoro-2-methylbenzonitrile], the values for the IC50 on hROMK (hKir1.1) (setting [1]) and against Kir1.1 (ROMK1) were 90 nM and 100 nM, respectively.
Consider `Cc1c([C@@H]2CN3CCN(C(=O)Cc4cnc(-n5cnnn5)nc4)C[C@@H]3CO2)ccc(F)c1C#N` [Example 13, 6-fluoro-2-methyl-3-[(3R,9aR)-8-{[2-(1H-tetrazol-1-yl)pyrimidin-5-yl]acetyl}octahydropyrazino[2,1-c][1,4]oxazin-3-yl]benzonitrile], for which the values for the IC50 at hROMK (hKir1.1) (Thallium Flux IC50) and against Kir1.1 (ROMK1) were 110 nM and 30 nM, respectively.
As to `COc1ccc([C@@H]2CN3CCN(C(=O)Cc4ccc(-n5cnnn5)nc4)C[C@H]3CO2)c(C)c1C#N` [Example 50], the IC50 is 80 nM on hROMK (hKir1.1) (setting [1]) and 130 nM at Kir1.1 (ROMK1).
With `COc1cc(F)c([C@@H]2CN3CCN(C(=O)Cc4ccc(-n5cnnn5)nc4)C[C@H]3CO2)cc1C#N` [Example 57, 4-fluoro-2-methoxy-5-[(3R,9aS)-8-{[6-(1H-tetrazol-1-vl)pvridin-3-yl]acetyl}octahydropyrazino[2,1-c][1,4]oxazin-3-yl]benzonitrile], the IC50 worked out at 210 nM on hROMK (hKir1.1) (setting [1]) and 190 nM at Kir1.1 (ROMK1).
In the same order, the values of `Cc1c([C@@H]2CN3CCN(C(=O)Cc4ccc(-n5cnnn5)nc4)C[C@H]3CN2)ccc(F)c1C#N` [Example 194, 6-fluoro-2-methyl-3-[(3R,9aR)-8-{[6-(1H-tetrazol-1-yl)pyridin-3-yl]acetyl}octahydro-2H-pyrazino[1,2-a]pyrazin-3-yl]benzonitrile] are 60 nM and 60 nM.
In the case of `Cc1c([C@H]2CN3CCN(C(=O)Cc4ccc(-n5cnnn5)nc4)C[C@@H]3CO2)ccc(F)c1C#N` [Example 7, 6-fluoro-2-methyl-3-[(3S,9aR)-8-{[6-(1H-tetrazol-1-yl)pvridin-3-yl]acetyl}octahydropyrazino[2,1-c][1,4]oxazin-3-yl]benzonitrile], the IC50 against Kir1.1 (ROMK1) is 70 nM.
Turning to `Cc1c([C@@H]2CN3CCN(C(=O)Cc4ccc(-n5cnnn5)cn4)C[C@H]3CO2)ccc(F)c1C#N` [Example 2, 3-((3R,9aS)-8-(2-(5-(1H-tetrazol-1-yl)pyridin-2-yl)acetyl)octahydropyrazino[2,1-c][1,4]oxazin-3-yl)-6-fluoro-2-methylbenzonitrile], the IC50 on hROMK (hKir1.1) (setting [1]) worked out at 120 nM; against Kir1.1 (ROMK1) it was 70 nM.
For `Cc1c([C@H]2CN3CCN(C(=O)Cc4ccnc(-n5cnnn5)c4)C[C@H]3CO2)ccc(F)c1C#N` [Example 100], the IC50 on hROMK (hKir1.1) (setting [1]) came out at 190 nM.
`Cc1nc(-n2cnnn2)ncc1CC(=O)N1CCN2C[C@@H](c3ccc(F)c(C#N)c3C)OC[C@@H]2C1` [Example 118, 6-fluoro-2-methyl-3-[(3R,9aS)-8-{[4-methyl-2-(1H-tetrazol-1-vl)pvrimidin-5-yl]acetyl}octahydropyrazino[2,1-c][1,4]oxazin-3-yl]benzonitrile]: the IC50 against hROMK (hKir1.1) (Thallium Flux IC50) was 120 nM.
With `COc1cc([C@@H]2CN3CCN(C(=O)Cc4ccc(-n5cnnn5)nc4)C[C@@H]3CO2)cc(F)c1C#N` [Example 111, 2-fluoro-6-methoxy-4-[(3R,9aR)-8-{[6-(1H-tetrazol-1-vl)pvridin-3-yl]acetyl}octahydropyrazino[2,1-c][1,4]oxazin-3-yl]benzonitrile], the IC50 at hROMK (hKir1.1) (setting [1]) was determined as 170 nM.

The values are drawn from patent EP2790511B1 (Merck Sharp & Dohme Corp., priority 2011, dated 2013).
